Results: patent US8927500B2, “Peptidomimetic macrocycles” (Aileron Therapeutics, Inc., priority 2012, dated 2015)
Like-named read-outs stand apart in the source and are kept apart here. Where a SMILES comes first, the peptide text is derived from it. Bridges are numbered along the chain shown (N, C = ends). [ ]: non-standard residue; d: D form. R8 = C=CCCCCCC[C@@](C)(N)C(=O)O; Cba = N[C@@H](CC1CCC1)C(=O)O; S5 = C=CCCC[C@](C)(N)C(=O)O

Columns and labels:
[1] = target: MDM2 (Homo sapiens, UniProt Q00987); experiment: Competitive fluorescence polarization assay for MDM2; format: binding; conditions: competitive FP assay, MDM2; for IC50: read-out: IC50 (MDM2)
[2] = target: T1, MDMX (Homo sapiens, UniProt O15151); experiment: Competitive fluorescence polarization assay for MDMX; format: binding; conditions: competitive FP assay; for IC50: read-out: IC50 (MDMX); for Ki: read-out: Ki (MDMX)
T1 sequence (O15151 1-125): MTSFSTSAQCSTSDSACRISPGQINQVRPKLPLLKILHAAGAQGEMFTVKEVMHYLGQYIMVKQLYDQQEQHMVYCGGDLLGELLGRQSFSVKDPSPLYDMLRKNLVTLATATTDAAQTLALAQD

Sequence of MDM2 (Q00987 1-125): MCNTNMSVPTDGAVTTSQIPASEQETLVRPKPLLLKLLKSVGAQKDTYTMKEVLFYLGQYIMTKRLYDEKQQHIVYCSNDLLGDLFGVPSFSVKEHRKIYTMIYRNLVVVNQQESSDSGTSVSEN

Structure (SMILES): CC(=O)N[C@@H](CC(C)C)C(=O)N[C@H](C(=O)N[C@@H](Cc1ccccc1)C(=O)N[C@]1(C)CCCCCCC=CCCC[C@@](C)(C(=O)N[C@@H](C)C(=O)N[C@@H](C)C(=O)NC(C)(C)C(=O)N[C@H](C(N)=O)C(C)C)NC(=O)[C@H](CC(C)C)NC(=O)[C@H](CCC(N)=O)NC(=O)[C@H](C)NC(=O)[C@H](Cc2c[nH]c3ccccc23)NC(=O)[C@H](Cc2ccc(O)cc2)NC(=O)[C@H](C)NC1=O)[C@@H](C)O (single isomer, unassigned) [compound 23]
- IC50 [1]: 100 to 1000 nM
- Ki ([1]; read-out: Ki (MDM2)): 10 to 100 nM

Structure (SMILES): CC(=O)N[C@@H](CC(C)C)C(=O)N[C@H](C(=O)N[C@@H](Cc1ccccc1)C(=O)N[C@]1(C)CCCCCCC=CCCC[C@@](C)(C(=O)N[C@@H](C)C(=O)N[C@@H](C)C(=O)NC(C)(C)C(=O)N[C@H](C(N)=O)C(C)C)NC(=O)[C@H](CC(C)C)NC(=O)[C@H](CCC(N)=O)NC(=O)[C@H](C)NC(=O)[C@H](Cc2c[nH]c3ccccc23)NC(=O)[C@H](Cc2ccc(O)cc2)NC(=O)[C@H](C)NC1=O)[C@@H](C)O (single isomer, unassigned) [compound 24]
- IC50 [1]: 10 to 100 nM
- Ki ([1]; read-out: Ki (MDM2)): < 10 nM

Structure (SMILES): CCCC[C@H](NC(=O)[C@H](C)NC(=O)[C@H](C)NC(=O)[C@]1(C)CCCC=CCCCCCC[C@@](C)(NC(=O)[C@H](Cc2ccccc2)NC(=O)[C@@H](NC(=O)[C@H](CC(C)C)NC(C)=O)[C@@H](C)O)C(=O)N[C@@H](C)C(=O)N[C@@H](Cc2ccc(O)cc2)C(=O)N[C@@H](Cc2c[nH]c3ccccc23)C(=O)N[C@@H](C)C(=O)N[C@@H](CCC(N)=O)C(=O)N[C@@H](CC(C)C)C(=O)N1)C(=O)N[C@@H](C)C(N)=O (single isomer, unassigned) [compound 68]
- IC50 [1]: 100 to 1000 nM
- Ki ([1]; read-out: Ki (MDM2)): 10 to 100 nM
- IC50 [2]: 100 to 1000 nM
- Ki [2]: 10 to 100 nM

Structure (SMILES): CC(=O)N[C@@H](CC(C)C)C(=O)N[C@H](C(=O)N[C@@H](Cc1ccc(F)c(F)c1)C(=O)N[C@]1(C)CCCCCCC=CCCC[C@@](C)(C(=O)N[C@@H](CO)C(=O)N[C@@H](C)C(=O)N[C@@H](C)C(N)=O)NC(=O)[C@H](CC2CCC2)NC(=O)[C@H](CCC(N)=O)NC(=O)[C@H](C)NC(=O)[C@H](Cc2c[nH]c3ccccc23)NC(=O)[C@H](Cc2ccc(O)cc2)NC(=O)[C@H](CCC(=O)O)NC1=O)[C@@H](C)O (single isomer, unassigned) [compound 289]
- IC50 [2]: 10 to 100 nM
- Ki [2]: 10 to 100 nM

Structure (SMILES): CC(=O)N[C@@H](CC(C)C)C(=O)N[C@H](C(=O)N[C@@H](Cc1ccccc1)C(=O)N[C@]1(C)CCCCCCC=CCCC[C@@](C)(C(=O)N[C@@H](C)C(=O)N[C@@H](C)C(=O)N[C@@H](C)C(=O)N[C@@H](C)C(=O)N[C@H](C)C(N)=O)NC(=O)[C@H](CCC(C)C)NC(=O)[C@H](CCC(N)=O)NC(=O)[C@H](C)NC(=O)[C@H](Cc2c[nH]c3ccccc23)NC(=O)[C@H](Cc2ccc(O)cc2)NC(=O)[C@H](C)NC1=O)[C@@H](C)O (single isomer, unassigned) [compound 313]
- IC50 [2]: 100 to 1000 nM
- Ki [2]: 10 to 100 nM

Structure (SMILES): CC(=O)N[C@@H](CC(C)C)C(=O)N[C@H](C(=O)N[C@@H](Cc1ccccc1)C(=O)N[C@]1(C)CCCCCCC=CCCC[C@@](C)(C(=O)N[C@@H](C)C(=O)N[C@@H](C)C(=O)N[C@@H](C)C(=O)N[C@@H](C)C(=O)N[C@H](C)C(N)=O)NC(=O)[C@H](CCC(C)C)NC(=O)[C@H](CCC(N)=O)NC(=O)[C@H](C)NC(=O)[C@H](Cc2c[nH]c3ccccc23)NC(=O)[C@H](Cc2ccc(O)cc2)NC(=O)[C@H](C)NC1=O)[C@@H](C)O (single isomer, unassigned) [compound 314]
- IC50 [2]: 10 to 100 nM
- Ki [2]: < 10 nM

Structure (SMILES): CCCC[C@H](NC(=O)C(C)(C)NC(=O)[C@H](C)NC(=O)[C@]1(C)CCCC=CCCCCCC[C@@](C)(NC(=O)[C@H](Cc2ccccc2)NC(=O)[C@@H](NC(=O)[C@H](CC(C)C)NC(C)=O)[C@@H](C)O)C(=O)N[C@@H](C)C(=O)N[C@@H](Cc2ccc(O)cc2)C(=O)N[C@@H](Cc2c[nH]c3ccccc23)C(=O)N[C@@H](C)C(=O)N[C@@H](CCC(N)=O)C(=O)N[C@@H](CC(C)C)C(=O)N1)C(=O)N[C@@H](C)C(N)=O (single isomer, unassigned) [compound 392]
- IC50 [1]: 10 to 100 nM
- Ki ([1]; read-out: Ki (MDM2)): < 10 nM

Structure (SMILES): CCCC[C@H](NC(=O)CN(C)C(=O)[C@H](C)NC(=O)[C@]1(C)CCCC=CCCCCCC[C@@](C)(NC(=O)[C@H](Cc2ccccc2)NC(=O)[C@@H](NC(=O)[C@H](CC(C)C)NC(C)=O)[C@@H](C)O)C(=O)N[C@@H](C)C(=O)N[C@@H](Cc2ccc(O)cc2)C(=O)N[C@@H](Cc2c[nH]c3ccccc23)C(=O)N[C@@H](C)C(=O)N[C@@H](CCC(N)=O)C(=O)N[C@@H](CC(C)C)C(=O)N1)C(=O)N[C@@H](C)C(N)=O (single isomer, unassigned) [compound 396]
- IC50 [1]: < 10 nM
- Ki ([1]; read-out: Ki (MDM2)): < 10 nM

Structure (SMILES): CC(=O)N[C@@H](CC(C)C)C(=O)N[C@H](C(=O)N[C@@H](Cc1ccccc1)C(=O)N[C@]1(C)CCCCCCC=CCCC[C@@](C)(C(=O)N[C@@H](C)C(=O)N[C@@H](C)C(=O)N[C@@H](C)C(=O)N[C@@H](C)C(=O)NC(C)(C)C(=O)N[C@H](C)C(N)=O)NC(=O)[C@H](CC(C)C)NC(=O)[C@H](CCC(N)=O)NC(=O)[C@H](C)NC(=O)[C@H](Cc2c[nH]c3ccccc23)NC(=O)[C@H](Cc2ccc(O)cc2)NC(=O)[C@H](CCC(=O)O)NC1=O)[C@@H](C)O (single isomer, unassigned) [compound 565]
- Ki ([1]; read-out: Ki (MDM2)): 10 to 100 nM

Structure (SMILES): CC(=O)N[C@@H](CC(C)C)C(=O)N[C@H](C(=O)N[C@@H](Cc1ccccc1)C(=O)N[C@]1(C)CCCCCCC=CCCC[C@@](C)(C(=O)N[C@@H](C)C(=O)N[C@@H](C)C(=O)N[C@@H](C)C(=O)N[C@@H](C)C(=O)NC(C)(C)C(=O)N[C@H](C)C(N)=O)NC(=O)[C@H](CC(C)C)NC(=O)[C@H](CCC(N)=O)NC(=O)[C@H](C)NC(=O)[C@H](Cc2c[nH]c3ccccc23)NC(=O)[C@H](Cc2ccc(O)cc2)NC(=O)[C@H](CCC(=O)O)NC1=O)[C@@H](C)O (single isomer, unassigned) [compound 566]
- Ki ([1]; read-out: Ki (MDM2)): < 10 nM

Structure (SMILES): CCCCCCCCCC(=O)N[C@@H](CC(C)C)C(=O)N[C@H](C(=O)N[C@@H](Cc1ccccc1)C(=O)N[C@]1(C)CCCCCCC=CCCC[C@@](C)(C(=O)N[C@@H](CO)C(=O)N[C@@H](C)C(=O)N[C@@H](C)C(N)=O)NC(=O)[C@H](CCC(C)C)NC(=O)[C@H](CCC(N)=O)NC(=O)[C@H](C)NC(=O)[C@H](Cc2c[nH]c3ccccc23)NC(=O)[C@H](Cc2ccc(O)cc2)NC(=O)[C@H](CCC(=O)O)NC1=O)[C@@H](C)O [compound 282]
- IC50 [2]: > 1000 nM
- Ki [2]: > 1000 nM

Structure (SMILES): CC(=O)N[C@@H](CC(C)C)C(=O)N[C@H](C(=O)N[C@@H](Cc1ccccc1)C(=O)N[C@]1(C)CCCCCCC=CCCC[C@@](C)(C(=O)N[C@@H](CO)C(=O)N[C@@H](C)C(=O)N[C@@H](C)C(N)=O)NC(=O)[C@H](CC2CCC2)NC(=O)[C@H](CCC(N)=O)NC(=O)[C@H](C)NC(=O)[C@H](Cc2c[nH]c3cc(Cl)ccc23)NC(=O)[C@H](Cc2ccc(O)cc2)NC(=O)[C@H](CCC(=O)O)NC1=O)[C@@H](C)O [compound 332]
- IC50 [2]: 10 to 100 nM
- Ki [2]: < 10 nM

Structure (SMILES): CC(C)C[C@H](NC(=O)CN(C)C)C(=O)N[C@H](C(=O)N[C@@H](Cc1ccccc1)C(=O)N[C@]1(C)CCCCCCC=CCCC[C@@](C)(C(=O)N[C@@H](CO)C(=O)N[C@@H](C)C(=O)N[C@@H](C)C(N)=O)NC(=O)[C@H](CC2CCC2)NC(=O)[C@H](CCC(N)=O)NC(=O)[C@H](C)NC(=O)[C@H](Cc2c[nH]c3ccccc23)NC(=O)[C@H](Cc2ccc(O)cc2)NC(=O)[C@H](CCC(=O)O)NC1=O)[C@@H](C)O [compound 435]
- IC50 [2]: 10 to 100 nM
- Ki [2]: < 10 nM

Structure (SMILES): CC(=O)N[C@@H](CC(C)C)C(=O)N[C@H](C(=O)N[C@@H](Cc1ccccc1)C(=O)N[C@]1(C)CCCCCCC=CCCC[C@@](C)(C(=O)N[C@H](C)C(N)=O)NC(=O)[C@H](CC(C)C)NC(=O)[C@H](CCC(N)=O)NC(=O)[C@H](C)NC(=O)[C@H](Cc2c[nH]c3ccccc23)NC(=O)[C@H](Cc2ccc(O)cc2)NC(=O)[C@H](CCC(=O)O)NC1=O)[C@@H](C)O [compound 589] (Ac-LTF[R8]EYWAQL[S5][dA]-NH2; staple 4-11)
- Ki ([1]; Ki (MDM2)): < 10 nM

Structure (SMILES): CC(=O)N[C@@H](CC(C)C)C(=O)N[C@H](C(=O)N[C@@H](Cc1ccccc1)C(=O)N[C@]1(C)CCCCCCC=CCCC[C@@](C)(C(=O)N[C@@H](CO)C(N)=O)NC(=O)[C@H](CC2CCC2)NC(=O)[C@H](CCC(N)=O)NC(=O)[C@H](C)NC(=O)[C@H](Cc2c[nH]c3ccccc23)NC(=O)[C@H](Cc2ccc(O)cc2)NC(=O)[C@H](CCC(=O)O)NC1=O)[C@@H](C)O [compound 595] (Ac-LTF[R8]EYWAQ[Cba][S5]S-NH2; staple 4-11)
- Ki ([1]; read-out: Ki (MDM2)): > 1000 nM

Structure (SMILES): CC(C)C[C@H](NC(=O)c1ccc(F)cc1)C(=O)N[C@H](C(=O)N[C@@H](Cc1ccccc1)C(=O)N[C@]1(C)CCCCCCC=CCCC[C@@](C)(C(=O)N[C@@H](CO)C(=O)N[C@@H](C)C(=O)N[C@@H](C)C(N)=O)NC(=O)[C@H](CC2CCC2)NC(=O)[C@H](CCC(N)=O)NC(=O)[C@H](C)NC(=O)[C@H](Cc2c[nH]c3ccccc23)NC(=O)[C@H](Cc2ccc(O)cc2)NC(=O)[C@H](CCC(=O)O)NC1=O)[C@@H](C)O [compound 597]
- Ki [2]: 10 to 100 nM

Structure (SMILES): CC(C)C[C@H](NC(=O)CCNC(=O)c1ccc2c(c1)C(=O)OC21c2ccc(N(C)C)cc2Oc2cc(N(C)C)ccc21)C(=O)N[C@H](C(=O)N[C@@H](Cc1ccccc1)C(=O)N[C@]1(C)CCCCCCC=CCCC[C@@](C)(C(=O)N[C@@H](CO)C(=O)N[C@@H](C)C(=O)N[C@@H](C)C(N)=O)NC(=O)[C@H](CC2CCC2)NC(=O)[C@H](CCC(N)=O)NC(=O)[C@H](C)NC(=O)[C@H](Cc2c[nH]c3ccccc23)NC(=O)[C@H](Cc2ccc(O)cc2)NC(=O)[C@H](CCC(=O)O)NC1=O)[C@@H](C)O [compound 686]
- Ki [2]: 10 to 100 nM
